{
  "source": "patent US20250339470A1",
  "about": "“METHODS AND COMPOSITIONS FOR MATURING CARDIOMYOCYTES” (President and Fellows of Harvard College, priority 2024, published 2025)",
  "key": {"hiPSC-CMs": {"system": "hiPSC-CMs", "test": "qPCR mRNA expression of hiPSC-CMs cultured 7 days on SAP-coated plates", "assay_type": "cell-based, human", "conditions": "7 days on 0.25% SAP coating; control Geltrex", "method": "At day 14 of cardiomyocyte differentiation, completion of the protocol was confirmed. Fully beating cardiomyocyte embryoid bodies were dissociated using the cardiomyocyte dissociation kit (STEMdiff Cardiomyocyte Dissociation Kit, […] Technologies, Canada) and reseeded (1.2 million cells/well) onto 6-well plates, which were prepared as follows. Each 6-well plate had 3 wells coated with Geltrex (control) and 3 wells coated with one of four self-assembling peptides (SAPs) at 0.25% concentration such that the differentiated cardiomyocytes would be cultured with the SAP. Specifically, the following SAPs were used in this study: RADA16, IEIK13, KLD12, and QLEL12. The cells were maintained for further in vitro analysis. Total RNA was extracted 7 days after initial exposure to each SAP to analyze messenger RNA (mRNA) expression of cardiomyocyte genes characteristics of an adult-like state. The inventors used Tryzol (TRIzol Reagent, Invitrogen, USA) to extract total RNA and a purification kit (E.Z.N.A. Total RNA kit I, Omega Bio-tec, Inc., Georgia, USA) according to the manufacturer's instructions. After quantification, RNA was reverse transcribed to cDNA using the High-Capacity cDNA Reverse Transcription Kit (Applied Biosystems) according to the manufacturer's instructions. Quantitative Polymerase Chain Reaction (qPCR) was performed in triplicate for each sample using the iTaq Universal SYBR Green Supermix (Bio-Rad) and the primer pairs (table S3) with a Bio-Rad CFX384 Real-Time thermal cycler. Double delta analyses were performed to compute the relative mRNA expression of each target gene using glyceraldehyde-3-phosphate dehydrogenase (GAPDH) as a housekeeping control gene."}, "[1]": {"system": "hiPSC-CMs injected into the rat left ventricle wall", "test": "Sarcomere organization (SOTA), orientation and length of injected hiPSC-CMs", "assay_type": "in vivo", "conditions": "7 days post-injection", "method": "The sections were stained with anti-cardiac troponin T antibody (Alexa Fluor 647 Mouse Anti-Cardiac Troponin T (cat #565744): cTnT, BD Pharmagen. 1:200), anti-human troponin I antibody (Recombinant Anti-Cardiac Troponin I antibody [EP1106Y] (ab52862): hTnI, Abcam 1:250), and DAPI as performed in the immunofluorescent staining. […] In this study, the inventors applied SarcOmere Texture Analysis (SOTA) to quantify sarcomere organization (17). SOTA was conducted by independent investigators who had no prior knowledge of the sample information. This methodological approach minimized potential biases and enhanced the reliability of the results.\nhiPSC-CMs were stained with hTnI to identify myofilaments. […]\nSarcomere length was measured as the distance between hTnI-stained Z-lines from cardiomyocytes with visible sarcomere structures. An average of 10 sarcomeres from each sample was calculated on an interpolated YZ projection to account for spatial distribution across different regions of the image (45). […]\nThe inventors performed the automated analysis of sarcomere organization using SOTA, which was previously validated in endogenous, direct reprogrammed, and induced pluripotent-derived cardiomyocytes (17). […] The inventors also calculated the primary sarcomere orientation using the SOTA angle of peak prominence. […]"}, "[2]": {"system": "hiPSC-CMs transplanted into rat hearts", "test": "Electrophysiological recording with flexible mesh nanoelectronics (Langendorff)", "assay_type": "in vivo", "conditions": "3 months after transplantation into the athymic rat heart", "method": "The inventors used RNU nude rats (8-10 weeks old, male, 250-350 g). Rats received cyclosporine injections (15 mg/kg) as an immunosuppressant a day before the injection and every day after surgery. […] After at least five days of observation in healthy conditions, the rats were applied to the electrophysiological study. […] As a pre-surgical analgesic, buprenorphine (0.1 mg/kg) was administered to the rats before anesthesia. […] The distal ascending aorta was ligated with a 4-0 silk suture, followed by infusion of heparin to coronary arteries, with the right atrium cut open to infuse efficiently with decreased right atrium pressure. […] The temperature of the circulated solution, the chamber of the Langendorff, and the heart rate were monitored with a data acquisition system (Bridge Amp (PowerLab 8/30, ADInstruments, USA), Bio Amp (Product code: FE231, ADInstruments, USA), Spring Clip Electrodes (Product code: MLA1214, AD ADInstruments, USA), and LabChart software v8.1.20) until the heart beating became stable. […] The inventors analyzed the electrophysiological data with a customized Python script. […] The inventors then detected electrical spikes using “find_peaks” from Scipy. The inventors manually curated the detected spikes into host sinus rhythm, automaticity/arrhythmia rhythm, and noises. […] The spikes were recorded at both the injection and reference sites. • 2. […]"}},
  "note": "“Also recorded” adds a separate entry of the source.",
  "data": [
    {"substance": "IEIK13", "values": [
      {"measurement": "expression of KCNJ2", "setting": "hiPSC-CMs", "value": "significantly higher"}
    ]},
    {"substance": "KLD12", "values": [
      {"measurement": "expression of KCNJ2", "setting": "hiPSC-CMs", "value": "significantly higher"}
    ]},
    {"substance": "RADA16", "values": [
      {"measurement": "expression of GJA1", "setting": "hiPSC-CMs", "value": "significantly higher in the RADA16 group compared to all other SAP groups and the control group; also recorded: highest expression"},
      {"measurement": "expression of KCNJ2", "setting": "hiPSC-CMs", "value": "significantly higher; also recorded: highest expression"},
      {"measurement": "expression of NANOG", "setting": "hiPSC-CMs", "value": "significantly lower in the RADA16 and control groups than in the IEIK13 group; also recorded: no significant difference between the control and RADA16 group; also recorded: significantly declined"},
      {"measurement": "ratio of MYH7 mRNA expression to MYH6 expression", "setting": "hiPSC-CMs", "value": "significantly higher in the RADA16 group than in the IEIK13 and QLEL12 groups; also recorded: not significantly different between the RADA16 and control groups nor the RADA16 and KLD12 groups; also recorded: most pronounced increase"},
      {"measurement": "ratio of TNNI3 to TNNI1 expression", "setting": "hiPSC-CMs", "value": "higher TNNI3/TNNI1 expression ratio"},
      {"measurement": "sarcomere length", "setting": "[1]", "value": "not associated with a difference"},
      {"measurement": "ventricular bigeminy", "setting": "[2]", "value": "not observed"}
    ]}
  ]
}
